The pIC50 is the negative decadic logarithm of the IC50, by convention in mol/L.

Data on 24 compounds can be found in patent US8648066B2 (Exelixis, Inc., priority 2009, dated 2014).

pIC50: −log10 of the molar value.

This assay deals with mTOR/GbL/Raptor (mTORC1) (Homo sapiens, UniProt P42345). In words: mTOR/GbL/Raptor (mTORC1) ELISA assay. Format: biochemical. Particulars: phosphorylation of 4E-BP1; 0.2 nM mTORC1, 10 μM ATP; read-out: IC50 in this assay (mTORC1 ELISA). How it is done: The measurement of mTORC1 enzyme activity was performed in an ELISA assay format following the phosphorylation of 4E-BP1 protein. All experiments were performed in the 384-well format. Generally, 0.5 μL DMSO containing varying concentrations of the test Compound was mixed with 15 μL enzyme solution. Kinase reactions were initiated with the addition of 15 μL of substrates-containing solution. The assay conditions were as follows; 0.2 nM mTORC1, 10 μM ATP and 50 nM NHis-tagged 4E-BP1 in 20 mM Hepes, pH 7.2, 1 mM DTT, 50 mM NaCl, 10 mM MnCl2, 0.02 mg/mL BSA, 0.01% CHAPS, 50 mM β-glycerophosphate. Following an incubation of 120 minutes at ambient temperature, 20 μL of the reaction volume was transferred to a Ni-Chelate-coated 384-well plate. The binding step of the 4E-BP1 protein proceeded for 60 minutes, followed by washing 4 times each with 50 μL of Tris-buffered saline solution (TBS). Anti-phospho-4E-BP1 rabbit-IgG (20 μL, 1:5000) in 5% BSA-TBST (0.2% Tween-20 in TBS) was added and further incubated for 60 minutes. Incubation with a secondary HRP-tagged anti-IgG was similarly performed after washing off the primary antibody (4 washes of 50 μL). Following the final wash step with TBST, 20 μL of SuperSignal ELISA Femto (Pierce Biotechnology) was added and the luminescence measured using an EnVision plate reader.
(In general: An ELISA detects its analyte on a solid surface through an enzyme-linked reagent.)
In the case of `COc1cc2c(N3CCOc4ccc(-c5ccc6nc(C)[nH]c6c5)cc4C3)ncnc2cc1OCc1ccccc1` [Example 10], the pIC50 is 6.00 to 6.60.

Turning to `COc1cc2c(N3CCOc4ccc(-c5ccc6nc(C)[nH]c6c5)cc4C3)ncnc2cc1Br` [Example 31, 4-[7-bromo-6-(methyloxy)quinazolin-4-yl]-7-(2-methyl-1H-benzimidazol-6-yl)-2,3,4,5-tetrahydro-1,4-benzoxazepine], the pIC50 was 6.00 to 6.60.

`Cc1nc2ccc(-c3ccc4c(c3)CN(c3ncnc5c(Cl)cc(Cl)cc35)CCO4)cc2[nH]1` [Example 32, 4-(6,8-dichloroquinazolin-4-yl)-7-(2-methyl-1H-benzimidazol-6-yl)-2,3,4,5-tetrahydro-1,4-benzoxazepine]: the pIC50 was 6.60 to 7.30.

With `COc1ccc2nc(Cl)nc(N3CCOc4ccc(-c5ccc6nc(C)[nH]c6c5)cc4C3)c2c1` [Example 33, 4-[2-chloro-6-(methyloxy)quinazolin-4-yl]-7-(2-methyl-1H-benzimidazol-6-yl)-2,3,4,5-tetrahydro-1,4-benzoxazepine], the pIC50 was 6.00 to 6.60.

In the case of `COc1ccc2c(N3CCOc4ccc(-c5ccc6nc(C)[nH]c6c5)cc4C3)ncnc2c1OC` [Example 34, 4-[7,8-bis(methyloxy)quinazolin-4-yl]-7-(2-methyl-1H-benzimidazol-6-yl)-2,3,4,5-tetrahydro-1,4-benzoxazepine], the pIC50 is 6.60 to 7.30.

In the case of `Cc1nc2ccc(-c3ccc4c(c3)CN(c3ncnc5cc(Cl)c(I)cc35)CCO4)cc2[nH]1` [Example 35, 4-(7-chloro-6-iodoquinazolin-4-yl)-7-(2-methyl-1H-benzimidazol-6-yl)-2,3,4,5-tetrahydro-1,4-benzoxazepine], the pIC50 was 6.60 to 7.30.

With `Cc1nc2ccc(-c3ccc4c(c3)CN(c3ncnc5cc(C(F)(F)F)ccc35)CCO4)cc2[nH]1` [Example 36, 7-(2-methyl-1H-benzimidazol-6-yl)-4-[7-(trifluoromethyl)quinazolin-4-yl]-2,3,4,5-tetrahydro-1,4-benzoxazepine], the pIC50 is 6.60 to 7.30.

For `COc1cc2ncnc(N3CCOc4ccc(-c5ccc6nc(C)[nH]c6c5)cc4C3)c2cc1I` [Example 37, 4-[6-iodo-7-(methyloxy)quinazolin-4-yl]-7-(2-methyl-1H-benzimidazol-6-yl)-2,3,4,5-tetrahydro-1,4-benzoxazepine], the pIC50 is 7.30 to 8.00.

With `COc1cc2ncnc(N3CCOc4ccc(-c5ccc6nc(C)[nH]c6c5)cc4C3)c2cc1Cl` [Example 38, 4-[6-chloro-7-(methyloxy)quinazolin-4-yl]-7-(2-methyl-1H-benzimidazol-6-yl)-2,3,4,5-tetrahydro-1,4-benzoxazepine], the pIC50 is 7.30 to 8.00.

For `COc1c(OCc2ccccc2)ccc2c(N3CCOc4ccc(-c5ccc6nc(C)[nH]c6c5)cc4C3)ncnc12` [Example 39, 7-(2-methyl-1H-benzimidazol-6-yl)-4-{8-(methyloxy)-7-[(phenylmethyl)oxy]quinazolin-4-yl}-2,3,4,5-tetrahydro-1,4-benzoxazepine], the negative-log IC50 (pIC50) is 6.60 to 7.30.

On to `Cc1nc2ccc(-c3ccc4c(c3)CN(c3ncnc5cc(S(C)(=O)=O)ccc35)CCO4)cc2[nH]1` [Example 40, 7-(2-methyl-1H-benzimidazol-6-yl)-4-[7-(methylsulfonyl)quinazolin-4-yl]-2,3,4,5-tetrahydro-1,4-benzoxazepine], for which the pIC50 is 6.60 to 7.30.

As to `COc1c(Cl)cc2c(N3CCOc4ccc(-c5ccc6nc(C)[nH]c6c5)cc4C3)ncnc2c1OC` [Example 42, 4-[6-chloro-7,8-bis(methyloxy)quinazolin-4-yl]-7-(2-methyl-1H-benzimidazol-6-yl)-2,3,4,5-tetrahydro-1,4-benzoxazepine], the pIC50 is 6.00 to 6.60.

For `COc1cc2ncnc(N3CCOc4ccc(-c5ccc6nc(C)[nH]c6c5)cc4C3)c2cc1Br` [Example 43, 4-[6-bromo-7-(methyloxy)quinazlolin-4-yl]-7-(2-methyl-1H-benzimidazol-6-yl)-2,3,4,5-tetrahydro-1,4-benzoxazepine], the pIC50 was 6.60 to 7.30.

As to `Cc1nc2ccc(-c3ccc4c(c3)CN(c3ncncc3C)CCO4)cc2[nH]1` [Example 44, 7-(2-methyl-1H-benzimidazol-6-yl)-4-(5-methylpyrimidin-4-yl)-2,3,4,5-tetrahydro-1,4-benzoxazepine], the pIC50 is 5.70 to 6.00.

Consider `Cc1nc2ccc(-c3ccc4c(c3)CN(c3ncnc5sccc35)CCO4)cc2[nH]1` [Example 45, 7-(2-methyl-1H-benzimidazol-6-yl)-4-thieno[2,3-d]pyrimidin-4-yl-2,3,4,5-tetrahydro-1,4-benzoxazepine], for which the pIC50 was 6.00 to 6.60.

Turning to `Cc1nc2ccc(-c3ccc4c(c3)CN(c3ncnc5c3CCCC5)CCO4)cc2[nH]1` [Example 46, 7-(2-methyl-1H-benzimidazol-6-yl)-4-(5,6,7,8-tetrahydroquinazolin-4-yl)-2,3,4,5-tetrahydro-1,4-benzoxazepine], the pIC50 is 6.00 to 6.60.

Turning to `Cc1nc2ccc(-c3ccc4c(c3)CN(c3ncnc5scc(C)c35)CCO4)cc2[nH]1` [Example 47, 7-(2-methyl-1H-benzimidazol-6-yl)-4-(5-methylthieno[2,3-d]pyrimidin-4-yl)-2,3,4,5-tetrahydro-1,4-benzoxazepine], the pIC50 is no more than 5.70.

In the case of `Cc1nc2ccc(-c3ccc4c(c3)CN(c3ncnc(C)c3C)CCO4)cc2[nH]1` [Example 48, 4-(5,6-dimethylpyrimidin-4-yl)-7-(2-methyl-1H-benimidazol-6-yl)-2,3,4,5-tetrahydro-1,4-benzoxazepine], the pIC50 was 5.70 to 6.00.

For the compound `CSc1nc2c(c(N3CCOc4ccc(-c5ccc6nc(C)[nH]c6c5)cc4C3)n1)CCC2` [Example 49, 7-(2-methyl-1H-benzimidazol-6-yl)-4-[2-(methylthio)-6,7-dihydro-5H-cyclopenta[d]pyrimidin-4-yl]-2,3,4,5-tetrahydro-1,4-benzoxazepine], the pIC50 is 6.60 to 7.30.

Regarding `Cc1nc2ccc(-c3ccc4c(c3)CN(c3ncnc5ccc(S(C)(=O)=O)cc35)CCO4)cc2[nH]1` [Example 50, 7-(2-methyl-1H-benzimidazol-6-yl)-4-[6-(methylsulfonyl)quinazolin-4-yl]-2,3,4,5-tetrahydro-1,4-benzoxazepine], the pIC50 was 6.00 to 6.60.

As to `Cc1nc2ccc(-c3ccc4c(c3)CN(c3ncnc5c(C#N)c6n(c35)CCCC6)CCO4)cc2[nH]1` [Example 51, 4-[7-(2-methyl-1H-benzimidazol-6-yl)-2,3-dihydro-1,4-benzoxazepin-4(5H)-yl]-6,7,8,9-tetrahydropyrimido[4,5-b]indolizine-10-carbonitrile], the pIC50 is 6.00 to 6.60.

As for `CCSc1nc2c(c(N3CCOc4ccc(-c5ccc6nc(C)[nH]c6c5)cc4C3)n1)CCC2` [Example 54, 4-[2-(ethylthio)-6,7-dihydro-5H-cyclopenta[d]pyrimidin-4-yl]-7-(2-methyl-1H-benzimidazol-6-yl)-2,3,4,5-tetrahydro-1,4-benzoxazepine], the pIC50 was 6.00 to 6.60.

In the case of `Cc1nc2ccc(-c3ccc4c(c3)CN(c3ncnc(C)c3Cc3ccccc3)CCO4)cc2[nH]1` [Example 55, 7-(2-methyl-1H-benzimidazol-6-yl)-4-[6-methyl-5-(phenylmethyl)pyrimidin-4-yl]-2,3,4,5-tetrahydro-1,4-benzoxazepine], the pIC50 was no less than 8.00.

Turning to `CCc1ncnc(N2CCOc3ccc(-c4ccc5nc(C)[nH]c5c4)cc3C2)c1C` [Example 56, 4-(6-ethyl-5-methylpyrimidin-4-yl)-7-(2-methyl-1H-benzimidazol-6-yl)-2,3,4,5-tetrahydro-1,4-benzoxazepine], the pIC50 is 6.00 to 6.60.
